Among the data in ChEMBL document CHEMBL1147616, “DNA binding of a short lexitropsin” (Bioorg Med Chem Lett, 2004) are Binding activity values, retold here.

The subject of this experiment is Nucleic Acid. The experiment in a line: Compound was evaluated for its binding activity to the DNA AT-rich sites. The class given is nucleic-acid assay.

As for `CN(C)CCCNC(=O)c1cc(NC(=O)c2cc(NC(=O)c3cc(NC=O)cn3C)cn2C)cn1C`, the Binding activity is 3 µM. The compound `CC(C)n1cc(NC(=O)c2cc(NC=O)cn2C)cc1C(=O)Nc1cc(C(=O)NCCCN(C)C)n(C)c1` yielded a Binding activity of 0.3 µM.
